From PubChem BioAssay (NCI)
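Exposure lasted 48 hours, with cells grown in 96-well plates and compounds tested at five concentrations. At the GI50, growth is halved. At the TGI there is no net growth.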

Legend:
Experiment in all cases: NCI tumour cell line growth inhibition, 48 h
[1] = tested on: 786-0 renal
[2] = tested on: A498 renal
[3] = tested on: A549 NSCLC
[4] = tested on: ACHN renal
[5] = tested on: BT-549 breast
[6] = tested on: CAKI-1 renal
[7] = tested on: COLO 205 colon
[8] = tested on: DU-145 prostate
[9] = tested on: EKVX NSCLC
[10] = tested on: HCC-2998 colon
[11] = tested on: HCT-116 colon
[12] = tested on: HCT-15 colon
[13] = tested on: HOP-92 NSCLC
[14] = tested on: HS 578T breast
[15] = tested on: HT29 colon
[16] = tested on: IGROV1 ovarian
[17] = tested on: KM12 colon
[18] = tested on: LOX IMVI melanoma
[19] = tested on: M14 melanoma
[20] = tested on: MALME-3M melanoma
[21] = tested on: MCF7 breast
[22] = tested on: MDA-MB-231 breast
[23] = tested on: MDA-MB-435
[24] = tested on: NCI-H226 lung
[25] = tested on: NCI-H23 lung
[26] = tested on: NCI-H460 lung
[27] = tested on: NCI-H522 lung
[28] = tested on: NCI/ADR-RES ovarian
[29] = tested on: OVCAR-3 ovarian
[30] = tested on: OVCAR-4 ovarian
[31] = tested on: OVCAR-5 ovarian
[32] = tested on: OVCAR-8 ovarian
[33] = tested on: PC-3 prostate
[34] = tested on: RPMI-8226 leukemia
[35] = tested on: RXF 393 renal
[36] = tested on: SF-268 CNS
[37] = tested on: SF-295 CNS
[38] = tested on: SF-539 CNS
[39] = tested on: SK-MEL-2 melanoma
[40] = tested on: SK-MEL-28 melanoma
[41] = tested on: SK-MEL-5 melanoma
[42] = tested on: SK-OV-3 ovarian
[43] = tested on: SN12C renal
[44] = tested on: SNB-19 CNS
[45] = tested on: SNB-75 CNS
[46] = tested on: SW-620 colon
[47] = tested on: T-47D breast
[48] = tested on: TK-10 renal
[49] = tested on: U251 CNS
[50] = tested on: UACC-257 melanoma
[51] = tested on: UACC-62 melanoma
[52] = tested on: UO-31 renal
[53] = tested on: CCRF-CEM leukemia
[54] = tested on: HL-60(TB) leukemia
[55] = tested on: HOP-62 NSCLC
[56] = tested on: K-562 leukemia
[57] = tested on: MOLT-4 leukemia

## Brc1ccc([I+]c2ccc(Br)cc2)cc1
[1]
  GI50: 1.97 µM
  TGI: 11.2 µM
[2]
  GI50: 1.97 µM
  TGI: 10.7 µM
[3]
  GI50: 5.2 µM
  TGI: 20.2 µM
[4]
  GI50: 4.47 µM
  TGI: 21 µM
[5]
  GI50: 2.02 µM
  TGI: 12.3 µM
[6]
  GI50: 1.9 µM
  TGI: 8.98 µM
[7]
  GI50: 1.18 µM
  TGI: 2.68 µM
[8]
  GI50: 3.6 µM
  TGI: 16.6 µM
[9]
  GI50: 1.02 µM
  TGI: 3.04 µM
[10]
  GI50: 1.32 µM
  TGI: 8.12 µM
[11]
  GI50: 0.643 µM
  TGI: 11.5 µM
[12]
  GI50: 8.3 µM
  TGI: 42.7 µM
[13]
  GI50: 0.822 µM
  TGI: 5.69 µM
[14]
  GI50: 2.96 µM
  TGI: 19.9 µM
[15]
  GI50: 0.535 µM
  TGI: 3.16 µM
[16]
  GI50: 1.06 µM
  TGI: 6.8 µM
[17]
  GI50: 1.29 µM
  TGI: 2.89 µM
[18]
  GI50: 0.713 µM
  TGI: 2.12 µM
[19]
  GI50: 1.53 µM
  TGI: 5.14 µM
[20]
  GI50: 1.38 µM
  TGI: 12.3 µM
[21]
  GI50: 0.825 µM
  TGI: 10.2 µM
[22]
  GI50: 2.34 µM
  TGI: 17 µM
[23]
  GI50: 1.94 µM
  TGI: 17 µM
[24]
  GI50: 2.93 µM
  TGI: 15.3 µM
[25]
  GI50: 1.11 µM
  TGI: 4.2 µM
[26]
  GI50: 0.866 µM
  TGI: 4.23 µM
[27]
  GI50: 1.28 µM
  TGI: 3.18 µM
[28]
  GI50: > 100 µM
  TGI: > 100 µM
[29]
  GI50: 1.19 µM
  TGI: 3.06 µM
[30]
  GI50: 1.5 µM
  TGI: 10.6 µM
[31]
  GI50: 2.58 µM
  TGI: 7.9 µM
[32]
  GI50: 1.08 µM
  TGI: 4.01 µM
[33]
  GI50: 1.25 µM
  TGI: 3.8 µM
[34]
  GI50: 0.55 µM
  TGI: 10.5 µM
[35]
  GI50: 2.67 µM
  TGI: 11.5 µM
[36]
  GI50: 1.03 µM
  TGI: 2.4 µM
[37]
  GI50: 1.7 µM
  TGI: 5.85 µM
[38]
  GI50: 1.37 µM
  TGI: 4.28 µM
[39]
  GI50: 1.36 µM
  TGI: 3.09 µM
[40]
  GI50: 1.43 µM
  TGI: 3.79 µM
[41]
  GI50: 0.545 µM
  TGI: 1.83 µM
[42]
  GI50: 1.5 µM
  TGI: 3.12 µM
[43]
  GI50: 1.6 µM
  TGI: 4.26 µM
[44]
  GI50: 1.38 µM
  TGI: 2.76 µM
[45]
  GI50: 1.6 µM
  TGI: 8.03 µM
[46]
  GI50: 0.992 µM
  TGI: 4.31 µM
[47]
  GI50: 1.78 µM
  TGI: 11 µM
[48]
  GI50: 1.97 µM
  TGI: 13.3 µM
[49]
  GI50: 1.32 µM
  TGI: 2.65 µM
[50]
  GI50: 2.06 µM
  TGI: 5.53 µM
[51]
  GI50: 2.87 µM
  TGI: 17.5 µM
[52]
  GI50: 5.96 µM
  TGI: 26.1 µM

## COc1ccc(Cc2nc3cc(C(F)(F)F)ccc3n2CCCN(C)C)cc1
[2]
  TGI: 35.6 µM
[3]
  TGI: 38.9 µM
[4]
  TGI: 79.9 µM
[5]
  TGI: 43.4 µM
[6]
  TGI: 56 µM
[53]
  TGI: 44 µM
[7]
  TGI: 34.3 µM
[8]
  TGI: 40.4 µM
[9]
  TGI: 65.4 µM
[10]
  TGI: 13.1 µM
[12]
  TGI: 48.8 µM
[54]
  TGI: 27.1 µM
[55]
  TGI: > 100 µM
[13]
  TGI: > 100 µM
[14]
  TGI: 43.1 µM
[15]
  TGI: 39.9 µM
[16]
  TGI: 78.9 µM
[56]
  TGI: 34.4 µM
[17]
  TGI: 30.3 µM
[18]
  TGI: 40 µM
[19]
  TGI: 28.7 µM
[20]
  TGI: 29.1 µM
[21]
  TGI: 32.3 µM
[22]
  TGI: 64.6 µM
[23]
  TGI: 29.7 µM
[57]
  TGI: 16.3 µM
[24]
  TGI: > 100 µM
[25]
  TGI: 41.1 µM
[26]
  TGI: 46.7 µM
[27]
  TGI: 31.8 µM
[28]
  TGI: 45.2 µM
[29]
  TGI: 46.1 µM
[30]
  TGI: 80.4 µM
[31]
  TGI: > 100 µM
[32]
  TGI: > 100 µM
[33]
  TGI: 75 µM
[35]
  TGI: 29.2 µM
[36]
  TGI: 70.9 µM
[37]
  TGI: 37.5 µM
[39]
  TGI: 36.1 µM
[40]
  TGI: 34.6 µM
[41]
  TGI: 30.1 µM
[42]
  TGI: 41.9 µM
[44]
  TGI: > 100 µM
[46]
  TGI: 44.7 µM
[47]
  TGI: 32.3 µM
[48]
  TGI: 50.2 µM
[49]
  TGI: 31.9 µM
[50]
  TGI: 33.2 µM
[51]
  TGI: 32.1 µM
[52]
  TGI: 1.04 µM
